# Test system: FLAP (5-lipoxygenase activating protein)
# Experiment: In vitro binding test: displacement of [3H]-7-chloro-3-(5-((3-fluoropyridin-2-yl)methoxy)-2-methylphenyl)-3,4-dihydroquinazolin-2(1H)-one from Sf9 microsome fractions
# Design: species or system human and mouse
# Conditions: Sf9 microsome fractions expressing FLAP; 100% = radioligand binding with 10 μM sodium 3-(3-(tert-butylsulfanyl)-1-(4-chlorobenzyl)-5-isopropyl-1H-indol-2-yl)-2,2-dimethylpropanoate, 0% = DMSO; test compound concentration not given
# In short: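 Sf9 microsomes expressing human or mouse FLAP (2 μg/mL) preincubated with compound 10 min at room temperature, then 120 nM tritiated quinazolinone ligand added for 60 min; buffer 100 mM Tris-HCl pH 7.5 with NaCl, EDTA, DTT, glycerol, Tween20. Bound ligand filtered and counted by scintillation; 10 μM indole propanoate defines 100% inhibition, DMSO 0%.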
row,Compound,inhibitory rate (%)
1,"COc1ncc(C(F)(F)F)c2c1NC(=O)N(c1cc3c(cc1C)CCC(c1ncccc1F)O3)C2 (stereo not shown) [Example 107, 3-(2-(3-fluoropyridin-2-yl)-6-methyl-3,4-dihydro-2H-chromen-7-yl)-8-methoxy-5-(trifluoromethyl)-3,4-dihydropyrido[3,4-d]pyrimidin-2(1H)-one]",93
2,"COc1ncc(C(F)(F)F)c2c1NC(=O)N(c1cc3c(cc1Cl)CCC(c1ncccc1F)O3)C2 (stereo not shown) [Example 108, 3-(6-chloro-2-(3-fluoropyridin-2-yl)-3,4-dihydro-2H-chromen-7-yl)-8-methoxy-5-(trifluoromethyl)-3,4-dihydropyrido[3,4-d]pyrimidin-2(1H)-one]",104
3,"O=C1Nc2c(N3CCC(O)CC3)ncc(Cl)c2CN1c1cc2c(cc1Cl)CCC(c1ncccc1F)O2 (stereo not shown) [Example 109, 5-chloro-3-(6-chloro-2-(3-fluoropyridin-2-yl)-3,4-dihydro-2H-chromen-7-yl)-8-(4-hydroxypiperidin-1-yl)-3,4-dihydropyrido[3,4-d]pyrimidin-2(1H)-one]",106
4,"COCCOc1cnc(C(F)(F)F)c2c1NC(=O)N(c1cc3c(cc1C)CCC(c1ncccc1F)O3)C2 (stereo not shown) [Example 110, 3-(2-(3-fluoropyridin-2-yl)-6-methyl-3,4-dihydro-2H-chromen-7-yl)-8-(2-methoxyethoxy)-5-(trifluoromethyl)-3,4-dihydropyrido[4,3-d]pyrimidin-2(1H)-one]",99
5,"O=C(c1cc2c(c(C3CC3)n1)CN(c1cc3c(cc1Cl)CCC(c1ncccc1F)O3)C(=O)N2)N1CC(O)C1 (stereo not shown) [Example 112, 3-(6-chloro-2-(3-fluoropyridin-2-yl)-3,4-dihydro-2H-chromen-7-yl)-5-cyclopropyl-7-((3-hydroxyazetidin-1-yl)carbonyl)-3,4-dihydropyrido[4,3-d]pyrimidin-2(1H)-one]",103
6,"O=C1OCCN1c1cc2c(c(C3CC3)n1)CN(c1cc3c(cc1Cl)CCC(c1ncccc1F)O3)C(=O)N2 (stereo not shown) [Example 113, 3-(6-chloro-2-(3-fluoropyridin-2-yl)-3,4-dihydro-2H-chromen-7-yl)-5-cyclopropyl-7-(2-oxo-1,3-oxazolidin-3-yl)-3,4-dihydropyrido[4,3-d]pyrimidin-2(1H)-one]",114
7,"CC(C)(O)CNC(=O)c1cc2c(c(C3CC3)n1)CN(c1cc3c(cc1Cl)CCC(c1ncccc1F)O3)C(=O)N2 (stereo not shown) [Example 114, 3-(6-chloro-2-(3-fluoropyridin-2-yl)-3,4-dihydro-2H-chromen-7-yl)-5-cyclopropyl-N-(2-hydroxy-2-methylpropyl)-2-oxo-1,2,3,4-tetrahydropyrido[4,3-d]pyrimidine-7-carboxamide]",106
8,"O=C1Nc2cc(-c3ccn[nH]3)nc(C3CC3)c2CN1c1cc2c(cc1Cl)CCC(c1ncccc1F)O2 (stereo not shown) [Example 115, 3-(6-chloro-2-(3-fluoropyridin-2-yl)-3,4-dihydro-2H-chromen-7-yl)-5-cyclopropyl-7-(1H-pyrazol-5-yl)-3,4-dihydropyrido[4,3-d]pyrimidin-2(1H)-one]",106
9,"O=C1Nc2cc(-c3cn[nH]c3)nc(C3CC3)c2CN1c1cc2c(cc1Cl)CCC(c1ncccc1F)O2 (stereo not shown) [Example 116, 3-(6-chloro-2-(3-fluoropyridin-2-yl)-3,4-dihydro-2H-chromen-7-yl)-5-cyclopropyl-7-(1H-pyrazol-4-yl)-3,4-dihydropyrido[4,3-d]pyrimidin-2(1H)-one]",102
10,"O=C1Nc2cc(-c3n[nH]c(=O)o3)nc(C3CC3)c2CN1c1cc2c(cc1Cl)CCC(c1ncccc1F)O2 (stereo not shown) [Example 117, 3-(6-chloro-2-(3-fluoropyridin-2-yl)-3,4-dihydro-2H-chromen-7-yl)-5-cyclopropyl-7-(5-oxo-4,5-dihydro-1,3,4-oxadiazol-2-yl)-3,4-dihydropyrido[4,3-d]pyrimidin-2(1H)-one]",106
11,"O=C1Nc2cc(-c3noc(=S)[nH]3)nc(C3CC3)c2CN1c1cc2c(cc1Cl)CCC(c1ncccc1F)O2 (stereo not shown) [Example 118, 3-(6-chloro-2-(3-fluoropyridin-2-yl)-3,4-dihydro-2H-chromen-7-yl)-5-cyclopropyl-7-(5-thioxo-4,5-dihydro-1,2,4-oxadiazol-3-yl)-3,4-dihydropyrido[4,3-d]pyrimidin-2(1H)-one]",104
12,"Cc1n[nH]c(-c2cc3c(c(C4CC4)n2)CN(c2cc4c(cc2Cl)CCC(c2ncccc2F)O4)C(=O)N3)n1 (stereo not shown) [Example 119, 3-(6-chloro-2-(3-fluoropyridin-2-yl)-3,4-dihydro-2H-chromen-7-yl)-5-cyclopropyl-7-(3-methyl-1H-1,2,4-triazol-5-yl)-3,4-dihydropyrido[4,3-d]pyrimidin-2(1H)-one]",107
13,"O=C1COCCN1c1cc2c(c(C3CC3)n1)CN(c1cc3c(cc1Cl)CCC(c1ncccc1F)O3)C(=O)N2 (stereo not shown) [Example 120, 3-(6-chloro-2-(3-fluoropyridin-2-yl)-3,4-dihydro-2H-chromen-7-yl)-5-cyclopropyl-7-(3-oxomorpholin-4-yl)-3,4-dihydropyrido[4,3-d]pyrimidin-2(1H)-one]",100
14,"Cc1noc(-c2cc3c(c(C4CC4)n2)CN(c2cc4c(cc2Cl)CCC(c2ncccc2F)O4)C(=O)N3)n1 (stereo not shown) [Example 121, 3-(6-chloro-2-(3-fluoropyridin-2-yl)-3,4-dihydro-2H-chromen-7-yl)-5-cyclopropyl-7-(3-methyl-1,2,4-oxadiazol-5-yl)-3,4-dihydropyrido[4,3-d]pyrimidin-2(1H)-one]",111
15,"COc1cc2c(c(C3CC3)n1)CN(c1cc3c(cc1C)CCC(c1ncccc1F)O3)C(=O)N2 (stereo not shown) [Example 122, 5-cyclopropyl-3-(2-(3-fluoropyridin-2-yl)-6-methyl-3,4-dihydro-2H-chromen-7-yl)-7-methoxy-3,4-dihydropyrido[4,3-d]pyrimidin-2(1H)-one]",106
16,"Cc1cc2c(cc1N1Cc3c(cc(-n4cc(CO)cn4)nc3C3CC3)NC1=O)OC(c1ncccc1F)CC2 (stereo not shown) [Example 123, 5-cyclopropyl-3-(2-(3-fluoropyridin-2-yl)-6-methyl-3,4-dihydro-2H-chromen-7-yl)-7-(4-(hydroxymethyl)-1H-pyrazol-1-yl)-3,4-dihydropyrido[4,3-d]pyrimidin-2(1H)-one]",98
17,"O=C1Nc2cc(-c3nnco3)nc(C3CC3)c2CN1c1cc2c(cc1Cl)CCC(c1ncccc1F)O2 (stereo not shown) [Example 124, 3-(6-chloro-2-(3-fluoropyridin-2-yl)-3,4-dihydro-2H-chromen-7-yl)-5-cyclopropyl-7-(1,3,4-oxadiazol-2-yl)-3,4-dihydropyrido[4,3-d]pyrimidin-2(1H)-one]",104
18,"O=C1CNCCN1c1cc2c(c(C3CC3)n1)CN(c1cc3c(cc1Cl)CCC(c1ncccc1F)O3)C(=O)N2 (stereo not shown) [Example 125, 3-(6-chloro-2-(3-fluoropyridin-2-yl)-3,4-dihydro-2H-chromen-7-yl)-5-cyclopropyl-7-(2-oxopiperazin-1-yl)-3,4-dihydropyrido[4,3-d]pyrimidin-2(1H)-one]",95
19,"Cc1noc(C)c1-c1ncc(Cl)c2c1NC(=O)N(c1cc3c(cc1Cl)CCC(c1ncccc1F)O3)C2 (stereo not shown) [Example 126, 5-chloro-3-(6-chloro-2-(3-fluoropyridin-2-yl)-3,4-dihydro-2H-chromen-7-yl)-8-(3,5-dimethyl-1,2-oxazol-4-yl)-3,4-dihydropyrido[3,4-d]pyrimidin-2(1H)-one]",113
20,"O=C1Nc2c(C3=CCOCC3)ncc(Cl)c2CN1c1cc2c(cc1Cl)CCC(c1ncccc1F)O2 (stereo not shown) [Example 127, 5-chloro-3-(6-chloro-2-(3-fluoropyridin-2-yl)-3,4-dihydro-2H-chromen-7-yl)-8-(3,6-dihydro-2H-pyran-4-yl)-3,4-dihydropyrido[3,4-d]pyrimidin-2(1H)-one]",98
21,"Cc1cc2c(cc1N1Cc3c(cc(OC(F)F)nc3C3CC3)NC1=O)OC(c1ncccc1F)CC2 (stereo not shown) [Example 128, 5-cyclopropyl-7-(difluoromethoxy)-3-(2-(3-fluoropyridin-2-yl)-6-methyl-3,4-dihydro-2H-chromen-7-yl)-3,4-dihydropyrido[4,3-d]pyrimidin-2 (1H)-one]",111
22,"Cc1cc2c(cc1N1Cc3c(Cl)cnc(C)c3NC1=O)OC(c1ncccc1F)CC2 (stereo not shown) [Example 129, 5-chloro-3-(2-(3-fluoropyridin-2-yl)-6-methyl-3,4-dihydro-2H-chromen-7-yl)-8-methyl-3,4-dihydropyrido[3,4-d]pyrimidin-2(1H)-one]",114
23,"O=C1Nc2c(N3CCSCC3)ncc(Cl)c2CN1c1cc2c(cc1Cl)CCC(c1ncccc1F)O2 (stereo not shown) [Example 130, 5-chloro-3-(6-chloro-2-(3-fluoropyridin-2-yl)-3,4-dihydro-2H-chromen-7-yl)-8-(thiomorpholin-4-yl)-3,4-dihydropyrido[3,4-d]pyrimidin-2(1H)-one]",101
24,"O=C1NCCN1c1cc2c(c(C3CC3)n1)CN(c1cc3c(cc1Cl)CCC(c1ncccc1F)O3)C(=O)N2 (stereo not shown) [Example 131, 3-(6-chloro-2-(3-fluoropyridin-2-yl)-3,4-dihydro-2H-chromen-7-yl)-5-cyclopropyl-7-(2-oxoimidazolidin-1-yl)-3,4-dihydropyrido[4,3-d]pyrimidin-2(1H)-one]",101
25,"Cc1cc2c(cc1N1Cc3c(cc(-n4cccn4)nc3C3CC3)NC1=O)OC(c1ncccc1F)CC2 (stereo not shown) [Example 132, 5-cyclopropyl-3-(2-(3-fluoropyridin-2-yl)-6-methyl-3,4-dihydro-2H-chromen-7-yl)-7-(1H-pyrazol-1-yl)-3,4-dihydropyrido[4,3-d]pyrimidin-2(1H)-one]",104

# From US20150299188A1, “HETEROCYCLIC COMPOUND” (priority 2012, published 2015)
